Source: publication PMC7664408, “Biaryl Sulfonamides Based on the 2-Azabicycloalkane Skeleton—Synthesis and Antiproliferative Activity” (Materials, 2020)
Where two headings read alike, the source gives them in different places.

What was measured:
MV4-11 = assay: In vitro antiproliferative assay, MTT, 72 h; type: cell-based, human; details: biphenotypic B cell myelomonocytic leukemia MV4-11, 72 h, n.a. = not active in the range of concentrations used (up to 100 µM), read-out: IC50 [µM] ± SD [n = 5] MV4-11
BALB/3T3 = assay: In vitro antiproliferative assay on normal fibroblasts, SRB, 72 h; type: cell-based, mouse; details: for IC50: normal mouse fibroblasts BALB/3T3, 72 h, SRB, n.a. = not active in the range of concentrations used (up to 100 µM), read-out: IC50 [µM] ± SD [n = 5] Balb/3T3; for selectivity: IC50 value for BALB/3T3 line times bigger than for leukemia cells MV4-11: IC50 BALB/3T3 versus IC50 MV4-11
Description: (§1) The following human cancer cell lines, representing the most common types of cancer, were chosen for evaluation of the antiproliferative activity of the prepared sulfonamides: lung cancer (A549), breast cancer (MCF-7), colon adenocarcinoma (LoVo), and biphenotypic B cell myelomonocytic leukemia (MV4-11). As a reference, the normal mouse fibroblasts cell line (BALB/3T3) was applied. A549, LoVo and BALB/3T3 cell lines were purchased from the ATCC (American Type Culture Collection, Rockville, MD, USA), MCF-7 cell line—from EACC (The European Collection of Cell Cultures), and MV4-11 cell line was obtained from DSMZ (Leibniz Institute—German Collection of Microorganisms and Cell Culture, Braunschweig, Germany). All these lines were maintained at the Hirszfeld Institute of Immunology and Experimental Therapy (IIET) in Wrocław, Poland.
(§2) We used the following culture media: for A549 cell line: the mixture of RPMI 1640 and OptiMEM (1:1) medium (both from Gibco, Scotland, UK)), 2mM L-glutamine, 1mM sodium pyruvate (Sigma-Aldrich Chemie GmbH, Steinheim, Germany) and 5% fetal bovine serum (FBS; HyClone Laboratories, Logan, UT, USA). MCF-7 cells were cultured in Eagle’s medium (IIET, PAS, Wroclaw, Poland), 2mM L-glutamine and 10% of FBS supplemented with 0.8 mg/L of insulin (Sigma-Aldrich Chemie GmbH, Steinheim, Germany). For LoVo cell line, F12K medium was applied (American Type Culture Collection, Rockville, MD, USA-ATCC), with 5% FBS (HyClone Laboratories, Logan, UT, USA). MV4-11 cells were cultured in RPMI 1640/GlutaMax I medium (Gibco, Thermo Fisher Scientific, Leicestershire, UK) with 1 mM sodium pyruvate (Sigma-Aldrich Chemie GmbH, Steinheim, Germany) and 10% FBS (HyClone Laboratories). In case of BALB/3T3 cells, DMEM (Gibco, Thermo Fisher Scientific) supplemented with 2 mM L-glutamine and 5% FBS was used. Antibiotics: 100 U/mL penicillin (Polfa Tarchomin SA, Warsaw, Poland) and 100 µg/mL streptomycin (Sigma-Aldrich Chemie GmbH, Steinheim, Germany) were present in all the culture media; cells were cultured in a humid atmosphere containing 5% CO2 at 37 °C.
(§3) Twenty-four hours before addition of the tested compounds, each cell line was seeded in 96-well plastic plates (Sarstedt, Numbrecht, Germany) in an appropriate medium at 10^4 cells/well density, except MCF7 cell line: 0.75 × 10^4/well, and A549 cell line: 0.25 × 10^4/well. The studied cell lines were subjected to each of the tested sulfonamides at 4 different concentrations in the range of 100–0.1 µg/mL for 72 h. Cisplatin (Teva Pharmaceuticals, Poland) was used as a reference compound, and DMSO (Sigma-Aldrich Chemie GmbH, Steinheim, Germany) served as a solvent control at concentrations equivalent to these applied in the solutions of the tested sulfonamides. MTT assay was performed for leukemic cells, while sulforhodamine B assay (SRB) for the adherent cells.
(§4) After 72 h of incubation, cells were fixed in situ by gently adding of 50 µL per well of ice-cold 50% TCA (trichloroacetic acid, POCh, Gliwice, Poland) and were incubated at 4 °C for one hour. Each well was then washed five times with water, followed by addition of 50 µL of 0.4% solution of SRB (sulforhodamine B, Sigma-Aldrich Chemie GmbH, Steinheim, Germany) in 1% acetic acid (POCh, Gliwice, Poland), and plates were again incubated at RT for 0.5 h. Plates were washed five times with 1% acetic acid to remove the unbound dye. The stained cells were treated with 10 mM TRIS (Tris base, Sigma-Aldrich, Chemie GmbH, Steinheim, Germany). Absorbance at 540 nm in each well was read with Elisa plate reader (BioTek Synergy H4, Swindon, UK) using the Gen5 software.
(§5) The results are shown as average IC50 values (concentration of the compound causing inhibition of cell proliferation by 50%) ± standard deviation. IC50 values were determined using the Prolab-3 system based on Cheburator 0.4, a software developed by Nevozhay. At each concentration, sulfonamides were tested in triplicates in a single experiment. […]

A549 = assay: In vitro antiproliferative assay, SRB, 72 h; type: cell-based, human; details: lung cancer A549, 72 h, n.a. = not active in the range of concentrations used (up to 100 µM), read-out: IC50 [µM] ± SD [n = 5] A549
Description: as §1, §2, §3, §4, §5

LoVo = assay: In vitro antiproliferative assay, SRB, 72 h; type: cell-based, human; details: colon adenocarcinoma LoVo, n.a. = not active in the range of concentrations used (up to 100 µM), read-out: IC50 [µM] ± SD [n = 5] LoVo
Description: as §1, §2, §3, §4, §5

MCF-7 = assay: In vitro antiproliferative assay, SRB, 72 h; type: cell-based, human; details: n.a. = not active in the range of concentrations used (up to 100 µM), read-out: IC50 [µM] ± SD [n = 5] MCF-7
Description: as §1, §2, §3, §4, §5

[1] = Homo sapiens, MCF7, breast cancer MCF-7, 72 h

Row | SMILES | IC50 (MV4-11; Homo sapiens) [µM] | IC50 (A549; Homo sapiens) [µM] | IC50 (LoVo; Homo sapiens) [µM] | IC50 (MCF-7; [1]) [µM] | melting point [°C] | IC50 (BALB/3T3) [µM] | selectivity: IC50 value for BALB/3T3 line times bigger than for leukemia cells MV4-11 (BALB/3T3) [times] | IC50 (MV4-11) [µM] | IC50 (A549) [µM] | IC50 (LoVo) [µM] | IC50 (MCF-7; breast cancer MCF-7, 72 h) [µM]
1 | CC(c1ccccc1)N1CC(NS(=O)(=O)c2ccc(-c3ccccc3)cc2)C2CCC1C2 (centres unmarked) [Compound 9f] | 8.76 ± 3.45 | 13.6 ± 1.1 | 14.5 ± 2.54 | 18.8 ± 3.25 | – | 14.1 ± 2.63 | – | – | – | – | –
2 | COc1ccc(-c2ccc(S(=O)(=O)NC3CN(C(C)c4ccccc4)C4CCC3C4)cc2)cc1 (centres unmarked) [Compound 9h] | 3.92 ± 1.74 | 9.13 ± 1.05 | 11.8 ± 2.46 | 16.3 ± 2.11 | – | 15.1 ± 2.11 | ~3 | – | – | – | –
3 | C[C@@H](c1ccccc1)N1C[C@@H](NS(=O)(=O)c2ccc(-c3ccc(F)cc3)cc2)[C@@H]2CC[C@H]1C2 [Compound 9i, 4’-fluoro-N-((1S,4S,5R)-2-((S)-1-phenylethyl)-2-azabicyclo[3.2.1]octan-4-yl)-[1,1’-biphenyl]-4-sulfonamide] | 12.3 ± 3.25 | 24.4 ± 0.9 | 13.3 ± 1.55 | 12.7 ± 4.91 | 139 to 140 | 14.3 ± 3.18 | – | – | – | – | –
4 | O=S(=O)(NC[C@H]1N[C@H]2CC[C@@H]1C2)c1ccc(-c2ccc(F)cc2)cc1 [Compound 10i, N-((1S,3S,4R)-2-azabicyclo[2.2.1]heptan-3-ylmethyl)-4’-fluoro-[1,1’-biphenyl]-4-sulfonamide] | 8.28 ± 2.21 | 32.9 ± 1.36 | 21.7 ± 3.52 | 18 ± 2.82 | 155 | 24.4 ± 2.75 | ~4 | – | – | – | –
5 | C[C@@H](c1ccccc1)N1[C@H]2CC[C@H](C2)[C@@H]1CNS(=O)(=O)c1ccccc1 [Compound 11b, (1S,3R,4R)-N-((2-((S)-1-phenylethyl)-2-azabicyclo[2.2.1]heptan-3-yl)methyl) benzenesulfonamide] | 52.7 ± 14 | – | – | – | 107 to 109 | – | – | – | – | – | –
6 | Cc1ccc(S(=O)(=O)NC[C@H]2[C@@H]3CC[C@@H](C3)N2[C@@H](C)c2ccccc2)cc1 [Compound 11c, (1S,3R,4R)-4-methyl-N-((2-((S)-1-phenylethyl)-2-azabicyclo[2.2.1]heptan-3-yl)methyl) benzenesulfonamide] | 29.6 ± 12.9 | – | 83.2 ± 11.8 | – | 124 to 127 | – | – | – | – | – | –
7 | C[C@@H](c1ccccc1)N1[C@H]2CC[C@H](C2)[C@H]1CNS(=O)(=O)c1ccc(F)cc1 [Compound 11d, 4-fluoro-N-(((1S,3S,4R)-2-((S)-1-phenylethyl)-2-azabicyclo[2.2.1]heptan-3-yl)methyl)benzenesulfonamide] | 43.6 ± 14.5 | – | 92.2 ± 12.7 | – | 105 to 107 | – | – | – | – | – | –
8 | N.N.[Cl][Pt][Cl] [cisplatin, reference compound] | – | – | – | – | – | 10.7 ± 3.3 | – | 1.78 ± 1.22 | 3.02 ± 1.79 | 11.8 ± 3.87 | 10.3 ± 6.23

Continued, in another order:

Row | IC50 (MV4-11; Homo sapiens) [µM] | IC50 (A549; Homo sapiens) [µM] | IC50 (LoVo; Homo sapiens) [µM] | IC50 (MCF-7; [1]) [µM] | melting point [°C] | SMILES | IC50 (BALB/3T3) [µM] | selectivity: IC50 value for BALB/3T3 line times bigger than for leukemia cells MV4-11 (BALB/3T3) [times] | IC50 (MV4-11) [µM] | IC50 (A549) [µM] | IC50 (LoVo) [µM] | IC50 (MCF-7; breast cancer MCF-7, 72 h) [µM]
9 | 16.1 ± 4.95 | 38.4 ± 2.61 | 33.7 ± 5.13 | 39.1 ± 7.14 | – | CC(c1ccccc1)N1C2CCC(C2)C1CNS(=O)(=O)c1ccc(C(F)(F)F)cc1 (centres unmarked) [Compound 11e] | 37.5 ± 7.8 | – | – | – | – | –
10 | 3.09 ± 1.56 | 7.66 ± 2.08 | 19.3 ± 6.71 | 54 ± 16 | – | CC(c1ccccc1)N1C2CCC(C2)C1CNS(=O)(=O)c1ccc(-c2ccccc2)cc1 (centres unmarked) [Compound 11f] | 38.8 ± 7.88 | > 10 | – | – | – | –
11 | 4.26 ± 3.97 | 14.1 ± 4.77 | 7.23 ± 16.2 | 33 ± 18.9 | – | Cc1ccc(-c2ccc(S(=O)(=O)NCC3C4CCC(C4)N3C(C)c3ccccc3)cc2)cc1 (centres unmarked) [Compound 11g] | 45.3 ± 17.3 | > 10 | – | – | – | –
12 | 13.8 ± 2.64 | 12.8 ± 1.38 | 15.8 ± 2.26 | 22.4 ± 4.31 | – | COc1ccc(-c2ccc(S(=O)(=O)NCC3C4CCC(C4)N3C(C)c3ccccc3)cc2)cc1 (centres unmarked) [Compound 11h] | 12.4 ± 1.82 | – | – | – | – | –
13 | 11.2 ± 2.14 | 2.98 ± 1.38 | 5.29 ± 2.56 | 10.3 ± 2.71 | – | CC(c1ccccc1)N1C2CCC(C2)C1CNS(=O)(=O)c1ccc(-c2ccc(F)cc2)cc1 (centres unmarked) [Compound 11i] | 13.1 ± 2.68 | – | – | – | – | –
14 | 7.15 ± 3.53 | 11.3 ± 0.93 | 12.4 ± 2.44 | 17.3 ± 2.29 | 95 | C[C@@H](c1ccccc1)N1[C@H]2CC[C@H](C2)[C@H]1CNS(=O)(=O)c1ccc(-c2ccccc2F)cc1 [Compound 11j, 2’-fluoro-N-(((1S,3S,4R)-2-((S)-1-phenylethyl)-2-azabicyclo[2.2.1]heptan-3-yl)methyl)-[1,1’-biphenyl]-4-sulfonamide] | 12.3 ± 1.88 | – | – | – | – | –
15 | 15.1 ± 3.16 | 16.4 ± 1.57 | 15.1 ± 4.94 | 12.8 ± 4.03 | 128 to 129 | C[C@@H](c1ccccc1)N1C[C@@H](CNS(=O)(=O)c2ccc(-c3ccc(F)cc3)cc2)[C@@H]2CC[C@H]1C2 [Compound 12i, 4’-fluoro-N-(((1S,4S,5R)-2-((S)-1-phenylethyl)-2-azabicyclo[3.2.1]octan-4-yl)methyl)-[1,1’-biphenyl]-4-sulfonamide] | 18.4 ± 8.39 | – | – | – | – | –
16 | 56.1 ± 26.9 | 84.4 ± 26.1 | 44.5 ± 10.9 | – | – | CC(c1ccccc1)N1C2CCC(C2)C1CN(CC1C2CCC(C2)N1C(C)c1ccccc1)S(=O)(=O)c1ccc(-c2ccccc2)cc1 (centres unmarked) [Compound 13f] | – | – | – | – | – | –
17 | – | – | – | – | 96 to 98 | C[C@@H](c1ccccc1)N1C(CN(C[C@H]2[C@@H]3CC[C@@H](C3)N2[C@@H](C)c2ccccc2)S(=O)(=O)c2ccc(-c3ccc(F)cc3)cc2)[C@@H]2CC[C@H]1C2 (stereo partly drawn) [Compound 13i, 4’-fluoro-N-(((1S,3R,4R)-2-((S)-1-phenylethyl)-2-azabicyclo[2.2.1]heptan-3-yl)methyl)-N-(((1S,4R)-2-((S)-1-phenylethyl)-2-azabicyclo[2.2.1]heptan-3-yl)methyl)-[1,1’-biphenyl]-4-sulfonamide] | – | – | – | – | – | –
